Data from patent US5807535A, “Metal complexes of hydroxyaryl containing aminocarboxylic acid chelating agents” (Australian Nuclear Science & Technology Organisation, priority 1992, dated 1998).
Where two headings read alike, the source gives them in different places.

Columns and labels:
[1] = Biodistribution of 99mTc complexes in mice; assay type: in vivo, Balb/c mice
Text: A series of derivatives incorporating carboxyl and phenolate donor groups (1-6) were synthesised by literature method and their radiolabelling characteristic and biological behaviour evaluated. Initial work involved an investigation of radiochemical properties of the ^99m Tc complexes of the ligands and their biodistribution in rats and mice (see Tables 1-6 and 8-12).
(§1) A typical method of radiolabelling of the chelator was achieved by dissolving the chelator in a basic solution of saline. The pH was then adjusted to approx. 6 with HCl. Excess stannous chloride was added to the resultant solution followed by one equivalent volume of sodium ^99m TcO4 (10-50 mCi/ml). Final concentration of the chelator was approx. 1 mg/ml. The efficacy of labelling was determined by ITLC-SG. For each product only one main radiochemical species was observed. Each complex was diluted to 15 μCi/100 μl with saline. […] (See FIGS. 1A and 1B).

[2] = Biodistribution of 99mTc complexes in rats; assay type: in vivo, Australian Albino Wistar Rats; conditions: rats; for tissue uptake at 0.5 min / tissue uptake at 1 min / tissue uptake at 0.05 h / tissue uptake at 5 min / tissue uptake at 10 min: rat; for tissue uptake at 0.5 min: 30 sec
Protocol: as §1
Selected data from biodistribution results of technetium-99m complexes of No. 1, No. 2 and No 4 in the liver, kidney and blood at 3 minutes is tabulated below.

[3] = blood, read-out: biodistribution blood
[4] = bone, read-out: biodistribution bone
[5] = brain, read-out: biodistribution brain
[6] = eyes, read-out: biodistribution eyes
[7] = heart, read-out: biodistribution heart
[8] = kidneys, read-out: biodistribution kidneys
[9] = liver, read-out: biodistribution liver
[10] = lungs, read-out: biodistribution lungs
[11] = muscle, read-out: biodistribution muscle
[12] = pancreas, read-out: biodistribution pancreas
[13] = skin, read-out: biodistribution skin
[14] = spleen, read-out: biodistribution spleen
[15] = stomach, read-out: biodistribution stomach
[16] = tail, read-out: biodistribution tail
[17] = thymus, read-out: biodistribution thymus
[18] = thyroid, read-out: biodistribution thyroid
[19] = total git, read-out: biodistribution tot GIT

biodistribution GIT ([1]; 1 min): 3.82 % Injected dose | biodistribution bladder ([1]; 1 min): 0.12 % Injected dose | biodistribution blood ([1]; 1 min): 27.09 % Injected dose | biodistribution bone ([1]; 1 min): 5.34 % Injected dose | biodistribution heart ([1]; 1 min): 0.57 % Injected dose | biodistribution kidney ([1]; 1 min): 11.78 % Injected dose | biodistribution liver ([1]; 1 min): 12.07 % Injected dose | biodistribution lungs ([1]; 1 min): 1.54 % Injected dose | biodistribution muscle ([1]; 1 min): 23.48 % Injected dose | biodistribution skin ([1]; 1 min): 19.66 % Injected dose | biodistribution spleen ([1]; 1 min): 0.17 % Injected dose | biodistribution stomach ([1]; 1 min): 0.5 % Injected dose | biodistribution tail ([1]; 1 min): 2.42 % Injected dose | biodistribution urine ([1]; 1 min): 0 % Injected dose | biodistribution GIT ([1]; 3 min): 6.06 % Injected dose | biodistribution bladder ([1]; 3 min): 0.63 % Injected dose | biodistribution blood ([1]; 3 min): 12.02 % Injected dose | biodistribution bone ([1]; 3 min): 3.1 % Injected dose | biodistribution heart ([1]; 3 min): 0.23 % Injected dose | biodistribution kidney ([1]; 3 min): 11.23 % Injected dose | biodistribution liver ([1]; 3 min): 12.83 % Injected dose | biodistribution lungs ([1]; 3 min): 0.98 % Injected dose | biodistribution muscle ([1]; 3 min): 13.18 % Injected dose | biodistribution skin ([1]; 3 min): 19.28 % Injected dose | biodistribution spleen ([1]; 3 min): 0.1 % Injected dose | biodistribution stomach ([1]; 3 min): 0.98 % Injected dose | biodistribution tail ([1]; 3 min): 1.58 % Injected dose | biodistribution urine ([1]; 3 min): 5.62 % Injected dose | biodistribution GIT ([1]; 5 min): 4.77 % Injected dose | biodistribution bladder ([1]; 5 min): 0.68 % Injected dose | biodistribution blood ([1]; 5 min): 9.77 % Injected dose | biodistribution bone ([1]; 5 min): 2.88 % Injected dose | biodistribution heart ([1]; 5 min): 0.21 % Injected dose | biodistribution kidney ([1]; 5 min): 9.17 % Injected dose | biodistribution liver ([1]; 5 min): 11.82 % Injected dose | biodistribution lungs ([1]; 5 min): 0.77 % Injected dose | biodistribution muscle ([1]; 5 min): 9.81 % Injected dose | biodistribution skin ([1]; 5 min): 19.68 % Injected dose | biodistribution spleen ([1]; 5 min): 0.07 % Injected dose | biodistribution stomach ([1]; 5 min): 1.02 % Injected dose | biodistribution tail ([1]; 5 min): 3.76 % Injected dose | biodistribution urine ([1]; 5 min): 4.51 % Injected dose | biodistribution GIT ([1]; 10 min): 12.35 % Injected dose | biodistribution bladder ([1]; 10 min): 1.96 % Injected dose | biodistribution blood ([1]; 10 min): 5.34 % Injected dose | biodistribution bone ([1]; 10 min): 5.06 % Injected dose | biodistribution heart ([1]; 10 min): 0.12 % Injected dose | biodistribution kidney ([1]; 10 min): 5.58 % Injected dose | biodistribution liver ([1]; 10 min): 5.96 % Injected dose | biodistribution lungs ([1]; 10 min): 0.48 % Injected dose | biodistribution muscle ([1]; 10 min): 16.44 % Injected dose | biodistribution skin ([1]; 10 min): 15.68 % Injected dose | biodistribution spleen ([1]; 10 min): 0.06 % Injected dose | biodistribution stomach ([1]; 10 min): 1.16 % Injected dose | biodistribution tail ([1]; 10 min): 2.07 % Injected dose | biodistribution urine ([1]; 10 min): 11.64 % Injected dose | biodistribution GIT ([1]; 30 min): 20 % Injected dose | biodistribution bladder ([1]; 30 min): 1.23 % Injected dose | biodistribution blood ([1]; 30 min): 1.82 % Injected dose | biodistribution bone ([1]; 30 min): 1.12 % Injected dose | biodistribution heart ([1]; 30 min): 0.05 % Injected dose | biodistribution kidney ([1]; 30 min): 3.19 % Injected dose | biodistribution liver ([1]; 30 min): 3.09 % Injected dose | biodistribution lungs ([1]; 30 min): 0.2 % Injected dose | biodistribution muscle ([1]; 30 min): 4.98 % Injected dose | biodistribution skin ([1]; 30 min): 7.31 % Injected dose | biodistribution spleen ([1]; 30 min): 0.02 % Injected dose | biodistribution stomach ([1]; 30 min): 0.49 % Injected dose | biodistribution tail ([1]; 30 min): 1.53 % Injected dose | biodistribution urine ([1]; 30 min): 8.84 % Injected dose | tissue uptake at 0.5 min [2, 3]: 1.93 %ID/g | tissue uptake at 1 min [2, 3]: 1.71 %ID/g | tissue uptake at 0.05 h ([2]; blood, 3 minutes, selected data, read-out: Blood): 1.16 %ID/g | tissue uptake at 5 min [2, 3]: 0.83 %ID/g | tissue uptake at 10 min [2, 3]: 0.71 %ID/g | tissue uptake at 0.5 min [2, 4]: 0.31 %ID/g | tissue uptake at 1 min [2, 4]: 0.32 %ID/g | tissue uptake at 0.05 h ([2]; bone, 3 min, read-out: biodistribution bone): 0.26 %ID/g | tissue uptake at 5 min [2, 4]: 0.25 %ID/g | tissue uptake at 10 min [2, 4]: 0.19 %ID/g | tissue uptake at 0.5 min [2, 5]: 0.14 %ID/g | tissue uptake at 1 min [2, 5]: 0.09 %ID/g | tissue uptake at 0.05 h ([2]; brain, 3 min, read-out: biodistribution brain): 0.06 %ID/g | tissue uptake at 5 min [2, 5]: 0.05 %ID/g | tissue uptake at 10 min [2, 5]: 0.04 %ID/g | tissue uptake at 0.5 min [2, 6]: 0.19 %ID/g | tissue uptake at 1 min [2, 6]: 0.17 %ID/g | tissue uptake at 0.05 h ([2]; eyes, 3 min, read-out: biodistribution eyes): 0.18 %ID/g | tissue uptake at 5 min [2, 6]: 0.17 %ID/g | tissue uptake at 10 min [2, 6]: 0.13 %ID/g | tissue uptake at 0.5 min [2, 7]: 0.75 %ID/g | tissue uptake at 1 min [2, 7]: 0.67 %ID/g | tissue uptake at 0.05 h ([2]; heart, 3 min, read-out: biodistribution heart): 0.46 %ID/g | tissue uptake at 5 min [2, 7]: 0.33 %ID/g | tissue uptake at 10 min [2, 7]: 0.27 %ID/g | tissue uptake at 0.05 h ([2]; kidney, 3 minutes, selected data, read-out: Kidney): 4.12 %ID/g | tissue uptake at 0.5 min [2, 8]: 6.73 %ID/g | tissue uptake at 1 min [2, 8]: 6.55 %ID/g | tissue uptake at 0.05 h ([2]; kidneys, 3 min, read-out: biodistribution kidneys): 4.12 %ID/g | tissue uptake at 5 min [2, 8]: 2.87 %ID/g | tissue uptake at 10 min [2, 8]: 2.72 %ID/g | tissue uptake at 0.5 min [2, 9]: 1.73 %ID/g | tissue uptake at 1 min [2, 9]: 2.01 %ID/g | tissue uptake at 0.05 h ([2]; liver, 3 minutes, selected data, read-out: Liver): 1.54 %ID/g | tissue uptake at 5 min [2, 9]: 1.34 %ID/g | tissue uptake at 10 min [2, 9]: 0.76 %ID/g | tissue uptake at 0.5 min [2, 10]: 1.15 %ID/g | tissue uptake at 1 min [2, 10]: 1.13 %ID/g | tissue uptake at 0.05 h ([2]; lungs, 3 min, read-out: biodistribution lungs): 0.8 %ID/g | tissue uptake at 5 min [2, 10]: 0.54 %ID/g | tissue uptake at 10 min [2, 10]: 0.46 %ID/g | tissue uptake at 0.5 min [2, 11]: 0.28 %ID/g | tissue uptake at 1 min [2, 11]: 0.27 %ID/g | tissue uptake at 0.05 h ([2]; muscle, 3 min, read-out: biodistribution muscle): 0.26 %ID/g | tissue uptake at 5 min [2, 11]: 0.27 %ID/g | tissue uptake at 10 min [2, 11]: 0.15 %ID/g | tissue uptake at 0.5 min [2, 12]: 0.49 %ID/g | tissue uptake at 1 min [2, 12]: 0.51 %ID/g | tissue uptake at 0.05 h ([2]; pancreas, 3 min, read-out: biodistribution pancreas): 0.44 %ID/g | tissue uptake at 5 min [2, 12]: 0.44 %ID/g | tissue uptake at 10 min [2, 12]: 0.3 %ID/g | tissue uptake at 0.5 min [2, 13]: 0.37 %ID/g | tissue uptake at 1 min [2, 13]: 0.43 %ID/g | tissue uptake at 0.05 h ([2]; skin, 3 min, read-out: biodistribution skin): 0.49 %ID/g | tissue uptake at 5 min [2, 13]: 0.53 %ID/g | tissue uptake at 10 min [2, 13]: 0.4 %ID/g | tissue uptake at 0.5 min [2, 14]: 0.53 %ID/g | tissue uptake at 1 min [2, 14]: 0.42 %ID/g | tissue uptake at 0.05 h ([2]; spleen, 3 min, read-out: biodistribution spleen): 0.26 %ID/g | tissue uptake at 5 min [2, 14]: 0.2 %ID/g | tissue uptake at 10 min [2, 14]: 0.15 %ID/g | tissue uptake at 0.5 min [2, 15]: 0.14 %ID/g | tissue uptake at 1 min [2, 15]: 0.28 %ID/g | tissue uptake at 0.05 h ([2]; stomach, 3 min, read-out: biodistribution stomach): 0.32 %ID/g | tissue uptake at 5 min [2, 15]: 0.11 %ID/g | tissue uptake at 10 min [2, 15]: 0.12 %ID/g | tissue uptake at 0.5 min [2, 16]: 0.68 %ID/g | tissue uptake at 1 min [2, 16]: 0.56 %ID/g | tissue uptake at 0.05 h ([2]; tail, 3 min, read-out: biodistribution tail): 0.8 %ID/g | tissue uptake at 5 min [2, 16]: 0.73 %ID/g | tissue uptake at 10 min [2, 16]: 0.83 %ID/g | tissue uptake at 0.5 min [2, 17]: 0.38 %ID/g | tissue uptake at 1 min [2, 17]: 0.35 %ID/g | tissue uptake at 0.05 h ([2]; thymus, 3 min, read-out: biodistribution thymus): 0.27 %ID/g | tissue uptake at 5 min [2, 17]: 0.19 %ID/g | tissue uptake at 10 min [2, 17]: 0.14 %ID/g | tissue uptake at 0.5 min [2, 18]: 1.42 %ID/g | tissue uptake at 1 min [2, 18]: 1.15 %ID/g | tissue uptake at 0.05 h ([2]; thyroid, 3 min, read-out: biodistribution thyroid): 1.17 %ID/g | tissue uptake at 5 min [2, 18]: 0.59 %ID/g | tissue uptake at 10 min [2, 18]: 0.4 %ID/g | tissue uptake at 0.5 min [2, 19]: 0.27 %ID/g | tissue uptake at 1 min [2, 19]: 0.34 %ID/g | tissue uptake at 0.05 h ([2]; total git, 3 min, read-out: biodistribution tot GIT): 0.59 %ID/g | tissue uptake at 5 min [2, 19]: 0.79 %ID/g | tissue uptake at 10 min [2, 19]: 1.22 %ID/g | biodistribution blood ([2]; 3 min): 1.16 % Injected dose per gram | biodistribution liver ([2]; 3 min): 1.54 % Injected dose per gram
SMILES: O=C(O)CN(CCN(CC(=O)O)CC(=O)Nc1ccccc1O)CC(=O)Nc1ccccc1O [Compound 1]
